In US5492892A, “Endothelin antagonists” (priority 1994, dated 1996):
Bridge positions count the residues as written; N and C are the ends. Ends that are not written are not given here.

What was measured:
[1] = literature reports; cited from earlier work
[2] = target: endothelin receptors of the isolated, perfused guinea pig lung
[3] = system: isolated, perfused guinea pig lung; test: Vasoconstrictor (agonist) activity, isolated perfused lung preparation, pulmonary artery pressure
Procedure: Isolated, Perfused Guinea Pig Lung: Another procedure for determining the vasoconstrictor action of the endothelin-active peptides and the blocking action of endothelin antagonists utilizes isolated, perfused guinea pig lung as described in more detail in Example 4, infra.
(§1) The vasoconstrictor activity of Et-1 or Et-3 alone, or in the presence of antagonist, was determined using an isolated, perfused lung preparation (Horgan, M. J., et al. J. Appl. Phsysiol., 63, 93-104 (1987)). Briefly, Hartley guinea pigs (400-500 g) of either sex were anesthetized with 50 mg/kg pentobarbital sodium. Following a tracheotomy, the thorax was opened, the lung and heart excised and the pulmonary artery cannulated. A wide cannula was placed in the left atrium. Perfusion was then started, within 5 min. of opening the thorax. The perfusion flow was set at 28 ml/min. When there was no visible sign of blood in the pulmonary venous effluent, recirculation of the perfusate was started, and pulmonary artery pressure was monitored. Endothelin activity was measured in an accumulative dose-dependent manner for agonist activity by addition of the peptides to a recirculating 300 ml bath. To assess antagonist activity, dose response curves with endothelin were done in the constant presence of antagonist.

[4] = system: vascular beds; details: a number of vascular beds; Anggard et al.; cited from earlier work
[5] = system: Et-1 receptor; details: competitive and dose dependent manner; Fabregat et al.; cited from earlier work
[6] = system: endothelin responses; details: Fabregat et al.; cited from earlier work
[7] = system: Et-1 in Perfused Guinea Pig Lung; test: Antagonist activity against Et-1 in perfused guinea pig lung; details: for Pressure Increase Inhibition / Pressure Increase Ppa With Antagonist: antagonist 10^-7 M; for Pressure Increase Ppa With Antagonist: preperfused 5 min then coperfused
Procedure: as §1
The response with lungs preperfused, for 5 min. with [drawing 44] at a concentration of 10^-7 M before coperfusion with Et-1 was compared with the response determined on lungs perfused only with Et-1. (Results in both Tables 1 and 2 are based on the average of 4-7 determinations for each result).

[8] = system: Et-3 in perfused guinea pig lung; test: Specificity: lung preparations perfused with Et-3, with and without antagonist
Procedure: as §1
(§2) Specificity of [drawing 47] is illustrated in Table 2 which presents pressure increase data in similar lung preparations perfused with Et-3 and with other vasoconstrictor substances (alpha-thrombin and norepinephrine). As for the results shown in Table 1, pressure increase was determined on lung preparations with and without a 5 minute preperfusion step with 10^-7 M [drawing 48]

[9] = system: alpha-thrombin in perfused guinea pig lung; test: Specificity: lung preparations perfused with alpha-thrombin, with and without antagonist; details: α-Thrombin (10^-8 M); 5 minute preperfusion with 10^-7 M antagonist
Procedure: as §1, §2

[10] = system: norepinephrine in perfused guinea pig lung; test: Specificity: lung preparations perfused with norepinephrine, with and without antagonist; details: Norepinephrine (10^-7 M); 5 minute preperfusion with 10^-7 M antagonist
Procedure: as §1, §2

[11] = target: endothelin receptors of the isolated, perfused guinea pig lung; remark: listed apart in the source
[12] = isolated, perfused guinea pig lung

Sequence of [Dpr^1 -Asp^15 ]Et-1 (peptide): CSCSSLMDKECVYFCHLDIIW

Q: With “[Asn^8 ]Et-1: known Et-1 analog (Nakajima et al.) (CSCSSLMNKECVYFCHLDIIW; ends and bridges not checked; cysteine pairing not given here; UniProt P05305 53-73, looked up, variant D8N)” as the molecule, how does the endothelin activity [1] read?
A: show appreciable endothelin activity

Q: For [Dpr^1 -Asp^15 ]Et-1 (peptide), which Pressure Increase Inhibition (%) of the Et-1 response, lung preperfused and coperfused with 10^-7 M antagonist [2] is on record?
A: 95%

Q: For “[Leu^9 ]Et-1: known Et-1 analog (Nakajima et al.) (CSCSSLMDLECVYFCHLDIIW; ends and bridges not checked; cysteine pairing not given here; UniProt P05305 53-73, looked up, variant K9L)”, which endothelin activity [1] is on record?
A: show appreciable endothelin activity

Q: Which endothelin activity [1] does the source give for “[Phe^13 ]Et-1: known Et-1 analog (Nakajima et al.) (CSCSSLMDKECVFFCHLDIIW; ends and bridges not checked; cysteine pairing not given here; UniProt P05305 53-73, looked up, variant Y13F)” here?
A: show appreciable endothelin activity

Q: For `CC[C@H](C)[C@H](NC(=O)[C@H](CC(=O)O)NC(=O)[C@H](CC(C)C)NC(=O)[C@H](Cc1c[nH]cn1)NC(=O)[C@@H]1CSSC[C@H](N)C(=O)N[C@@H](CO)C(=O)N[C@H]2CSSC[C@H](NC(=O)[C@H](CCC(=O)O)NC(=O)[C@H](CCCCN)NC(=O)[C@H](CC(=O)O)NC(=O)[C@H](CCSC)NC(=O)[C@H](CC(C)C)NC(=O)[C@H](CO)NC(=O)[C@H](CO)NC2=O)C(=O)N[C@@H](C(C)C)C(=O)N[C@@H](Cc2ccc(O)cc2)C(=O)N[C@@H](Cc2ccccc2)C(=O)N1)C(=O)N[C@H](C(=O)N[C@@H](Cc1c[nH]c2ccccc12)C(=O)O)[C@@H](C)CC` [Et-1], which “Pressure Increase Ppa Without Antagonist” value ([3]; Et-1 Conc. 2 × 10^-10 M) is on record?
A: 2.3 cm H2 O

Q: And the “Pressure Increase Ppa Without Antagonist” value ([3]; Et-1 Conc. 10^-9 M)?
A: 6.1 cm H2 O

Q: And the “Pressure Increase Ppa Without Antagonist” value ([3]; Et-1 Conc. 10^-10 M)?
A: 1.2 cm H2 O

Q: And the “concentration at which Et-1 is active (dose-dependent increase in pulmonary artery pressure, Ppa)” value [3, 12]?
A: 10^-10 M

Q: And the “concentration giving a maximal response (increase in Ppa)” value [3, 12]?
A: 10^-8 M

Q: What about the “apparent potency order of vasoconstriction” value [4] of the same molecule?
A: Et-2>Et-1>Et-3

Q: For “[Ala^5 ]Et-1: known Et-1 analog (Nakajima et al.)”, which endothelin activity [1] is on record?
A: show appreciable endothelin activity

Q: With “[D-Arg^1, D-Phe^5, D-Trp^7,9, Leu^11 ] substance P” as the molecule, how does the “inhibition of ^125 I-labelled Et-1 binding to an Et-1 receptor” value [5] read?
A: able to inhibit

Q: And the “blocking of endothelin responses” value [6]?
A: blocks certain endothelin responses

Q: Which endothelin activity [1] does the source give for “[Ala^3,11 ]Et-1: known Et-1 analog (Randall et al.) (CSASSLMDKEAVYFCHLDIIW; ends and bridges not checked; cysteine pairing not given here; UniProt P05305 53-73, looked up, variant C3A C11A)” here?
A: shows endothelin activity

Q: Which endothelin activity [1] does the source give for “[Ala^4 ]Et-1: known Et-1 analog (Nakajima et al.) (CSCASLMDKECVYFCHLDIIW; ends and bridges not checked; cysteine pairing not given here; UniProt P05305 53-73, looked up, variant S4A)” here?
A: show appreciable endothelin activity

Q: With “[Phe^21 ]Et-1: known Et-1 analog (Nakajima et al.) (CSCSSLMDKECVYFCHLDIIF; ends and bridges not checked; cysteine pairing not given here; UniProt P05305 53-73, looked up, variant W21F)” as the molecule, how does the endothelin activity [1] read?
A: show appreciable endothelin activity

Q: For “Et-2: endothelin isopeptide (CSCSSWLDKECVYFCHLDIIW; ends and bridges not checked; cysteine pairing not given here; UniProt P20800 49-69, looked up)”, which “apparent potency order of vasoconstriction” value [4] is on record?
A: Et-2>Et-1>Et-3

Q: With “[Tyr^21 ]Et-1: known Et-1 analog (Nakajima et al.) (CSCSSLMDKECVYFCHLDIIY; ends and bridges not checked; cysteine pairing not given here; UniProt P05305 53-73, looked up, variant W21Y)” as the molecule, how does the endothelin activity [1] read?
A: show appreciable endothelin activity

Q: With [Dpr^1 -Asp^15 ]Et-1 as the molecule, how does the “agonist activity (increase in Ppa)” value ([3]; doses as high as 1×10^-6 M) read?
A: essentially no agonist activity

Q: And the “Pressure Increase Inhibition” value ([7]; Et-1 2 × 10^-10 M)?
A: 75%

Q: And the “Pressure Increase Ppa With Antagonist” value ([7]; Et-1 2 × 10^-10 M)?
A: 0.6 cm H2 O

Q: And the “Pressure Increase Inhibition” value ([7]; Et-1 10^-9 M)?
A: 65%

Q: And the “Pressure Increase Ppa With Antagonist” value ([7]; Et-1 10^-9 M)?
A: 2.1 cm H2 O

Q: What about the “Pressure Increase Inhibition” value ([7]; Et-1 10^-10 M) of the same molecule?
A: 95%

Q: What about the “Pressure Increase Ppa With Antagonist” value ([7]; Et-1 10^-10 M) of the same molecule?
A: 0.06 cm H2 O

Q: And the “blocking activity at higher doses of the analog” value ([7]; doses higher than 10^-7 M)?
A: did not substantially increase this blocking activity

Q: And the “Ppa With antagonist” value ([8]; Et-3 (10^-9 M), 5 minute preperfusion with 10^-7 M antagonist)?
A: 5.8 cm H2 O

Q: And the “antagonist activity against vasoconstricting substances other than Et-1” value ([8]; lung preparations treated with Et-3, α-thrombin or norepinephrine)?
A: no antagonist activity

Q: What about the “Ppa With antagonist” value [9] of the same molecule?
A: 8.5 cm H2 O

Q: And the “Ppa With antagonist” value [10]?
A: 1.3 cm H2 O

Q: Which “Ppa Without antagonist” value ([3]; Norepinephrine (10^-7 M)) does the source give for `NC[C@H](O)c1ccc(O)c(O)c1` [Norepinephrine] here?
A: 1.3 cm H2 O

Q: For “[Gly^6 ]Et-1: known Et-1 analog (Nakajima et al.) (CSCSSGMDKECVYFCHLDIIW; ends and bridges not checked; cysteine pairing not given here; UniProt P05305 53-73, looked up, variant L6G)”, which endothelin activity [1] is on record?
A: show appreciable endothelin activity

Q: For CTCFTYKDKECVYYCHLDIIW (disulfide 1-15, 3-11) [Endothelin 3], which Ppa (cm H2O), isolated perfused guinea pig lung, Et-3 at 10^-9 M without antagonist [11] is on record?
A: 3.8 cm H2O
